From patent US9045466B2, “Amidine compound or salt thereof” (priority 2011, dated 2015)
Converted amounts (≈) assume the structure as drawn. Counter-ions that a name gives are not always drawn. Like-named read-outs stand apart in the source and are kept apart here.

Assays:
Experiment in all cases: Fungal susceptibility test, broth microdilution method (MIC)
Type in all cases: cell-based
[1] = system: Candida albicans TIMM 1623; details: TIMM1623, 48 h
Description: (§1) The fungal susceptibility tests on test substances were conducted by the broth microdilution method equivalent to Clinical and Laboratory Standards Institute method. The medium used in the susceptibility tests was RPMI1640 adjusted to pH 7.0 with 0.165 mol/L morpholinepropanesulfonic acid (MOPS) and 50% sodium hydroxide (RPMI/MOPS). Each test substance was dissolved in DMSO and serially diluted in 2-fold increments with DMSO on a 96-well microplate. Then, the dilutions were dispensed by 1 μL to a 96-well microplate. Candida albicans TIMM 1623 cultured overnight at 35° C. in Sabouraud's agar medium was suspended in sterile saline. The number of cells was counted under a biological microscope, and the fungal suspension was diluted with RPMI/MOPS to prepare the inoculum solution (approximately 1×10^3 cells/mL). Alternatively, Candida albicans TIMM 1623 stored at −80° C. was diluted with RPMI/MOPS to prepare the inoculum solution (approximately 1×10^3 CFU/mL). Aspergillus fumigatus TIMM 0063 stored at 5° C. was diluted with RPMI/MOPS to prepare the inoculum solution (approximately 1×10^4 CFU/mL). Trichophyton rubrum NBRC 5467 stored at 5° C. or −80° C. was diluted with RPMI/MOPS to prepare the inoculum solution (approximately 2×10^3 CFU/mL). The 199 μL of inoculum solution was dispensed to each well to prepare the microplate containing the designated concentrations of test substance, medium and fungal cells. Candida albicans and Aspergillus fumigatus were cultured at 35° C. for 2 days. Trichophyton rubrum was cultured at 35° C. for 4 days. After the completion of culture, MIC was determined by visual observation. The MICs of Candida albicans and Aspergillus fumigatus were set to the lowest concentration at which approximately 50% growth inhibition was seen, when compared with a growth control without the addition of the test substance. The MIC of Trichophyton rubrum was set to the lowest concentration at which approximately 80% growth inhibition was seen, when compared with a growth control without the addition of the test substance.

[2] = system: Trichophyton rubrum NBRC 5467; details: NBRC5467, 96 h
Description: as §1

[3] = system: Aspergillus fumigatus TIMM 0063; details: TIMM0063, 48 h
Description: as §1

[4] = pH 7, read-out: MIC (μg/mL) C. albicans TIMM1623
[5] = pH 7, read-out: MIC (μg/mL) T. rubrum NBRC5467
[6] = RPMI/MOPS pH 7.0, 35° C. for 2 days, visual, lowest concentration with approximately 50% growth inhibition, read-out: MIC (μg/mL) C. albicans TIMM1623
[7] = pH 7, read-out: MIC (μg/mL) A. fumigatus TIMM 0063
[8] = RPMI/MOPS pH 7.0, 35° C. for 2 days, visual, lowest concentration with approximately 50% growth inhibition, read-out: MIC (μg/mL) A. fumigatus TIMM 0063
[9] = RPMI/MOPS pH 7.0, 35° C. for 4 days, visual, lowest concentration with approximately 80% growth inhibition, read-out: MIC (μg/mL) T. rubrum NBRC5467

Compound	MIC [1, 4]	MIC [2, 5]	MIC [1, 6]	further results
CCN(C)/C=N/c1cc(C)c(Cc2nc(-c3ccc(C(C)(C)C)cc3)cs2)cc1C [Example 17, N′-(4-{[4-(4-Tert-butylphenyl)-1,3-thiazol-2-yl]methyl}-2,5-dimethylphenyl)-N-ethyl-N-methylimidoformamide dihydrochloride]	0.0313 µg/mL	0.002 µg/mL		
CCN(C)/C=N/c1cc(C)c(Cc2nc(-c3ccc(C(=O)NC(C)(C)C)cc3)cs2)cc1C [Example 24, N-Tert-butyl-4-{2-[4-({(E)-[ethyl(methyl)amino]methylidene}amino)-2,5-dimethylbenzyl]-1,3-thiazol-4-yl}benzamide dihydrochloride]	0.0313 µg/mL	0.0039 µg/mL		
CCN(C)/C=N/c1cc(C)c(Cc2nc(-c3ccc(C(=O)NCC(C)(C)C)cc3)cs2)cc1C [Example 99, N-(2,2-Dimethylpropyl)-4-{2-[4-({(E)-[ethyl(methyl)amino]methylidene}amino)-2,5-dimethylbenzyl]-1,3-thiazol-4-yl}benzamide]			0.0625 µg/mL (≈ 0.131 µM)	
CCN(C)/C=N/c1cc(C)c(Cc2nc(-c3cnc(C(C)(C)C(F)(F)F)cn3)cs2)cc1C [Example 4, N′-[2,5-Dimethyl-4-({4-[5-(1,1,1-trifluoro-2-methylpropan-2-yl)pyrazin-2-yl]-1,3-thiazol-2-yl}methyl)phenyl]-N-ethyl-N-methylimidoformamide hydrochloride]	0.0313 µg/mL	0.002 µg/mL		
CCN(C)/C=N/c1cc(C)c(Cc2nc(-c3ccc(C)cc3F)cs2)cc1C [Example 59, N-Ethyl-N′-(4-{[4-(2-fluoro-4-methylphenyl)-1,3-thiazol-2-yl]methyl}-2,5-dimethylphenyl)-N-methylimidoformamide dihydrochloride]	0.0156 µg/mL	0.0005 µg/mL		MIC [3, 7]: 0.0313 µg/mL
CCN(C)/C=N/c1cc(C)c(Cc2nc(-c3ccc(C)cc3)cs2)cc1C [Example 3, N′-(2,5-Dimethyl-4-{[4-(4-methylphenyl)-1,3-thiazol-2-yl]methyl}phenyl)-N-ethyl-N-methylimidoformamide dihydrochloride]	0.0156 µg/mL	0.0005 µg/mL		MIC [3, 7]: 0.0156 µg/mL
CCN(C)/C=N/c1cc(C)c(Cc2nc(C(C)(C)C)cs2)cc1C [Example 29, N′-{4-[(4-Tert-butyl-1,3-thiazol-2-yl)methyl]-2,5-dimethylphenyl}-N-ethyl-N-methylimidoformamide dihydrochloride]	0.0625 µg/mL	0.0039 µg/mL		
CCN(C)/C=N/c1cc(C)c(Cc2nc(-c3cscn3)cs2)cc1C [Example 48, N′-[4-(4,4′-Bi-1,3-thiazol-2-ylmethyl)-2,5-dimethylphenyl]-N-ethyl-N-methylimidoformamide hydrochloride]	0.0625 µg/mL	0.0078 µg/mL		
CCN(C)/C=N/c1cc(C)c(Cc2nc(C(=O)c3ccc(C(F)(F)F)cc3)cs2)cc1C [Example 36, N′-{2,5-Dimethyl-4-[(4-{[4-(trifluoromethyl)phenyl]carbonyl}-1,3-thiazol-2-yl)methyl]phenyl}-N-ethyl-N-methylimidoformamide hydrobromide]			0.0313 µg/mL	
CCN(C)/C=N/c1cc(C)c(Cc2nc(-c3cnc(OC)cn3)cs2)cc1C [Example 26, N-Ethyl-N′-(4-{[4-(5-methoxypyrazin-2-yl)-1,3-thiazol-2-yl]methyl}-2,5-dimethylphenyl)-N-methylimidoformamide hydrobromide]			0.0625 µg/mL	MIC [3, 8]: 0.0625 µg/mL
CCN(C)/C=N/c1cc(C)c(Cc2nc(-c3ncc(C(C)(C)C)s3)cs2)cc1C [Example 20, N′-{4-[(5-Tert-butyl-2,4′-bi-1,3-thiazol-2′-yl)methyl]-2,5-dimethylphenyl}-N-ethyl-N-methylimidoformamide dihydrochloride]	0.0313 µg/mL	0.002 µg/mL		
CCN(C)/C=N/c1cc(C)c(Cc2nc(-c3ccc(C)cc3)ns2)cc1C [Example 16, N′-(2,5-Dimethyl-4-{[3-(4-methylphenyl)-1,2,4-thiadiazol-5-yl]methyl}phenyl)-N-ethyl-N-methylimidoformamide]			0.0313 µg/mL (≈ 0.0827 µM)	MIC [2, 9]: 0.002 µg/mL (≈ 0.00528 µM); MIC [3, 8]: 0.0313 µg/mL (≈ 0.0827 µM)
CCN(C)/C=N/c1cc(C)c(Cc2nc(-c3cc(F)c(C)cc3F)cs2)cc1C [Example 58, N′-(4-{[4-(2,5-Difluoro-4-methylphenyl)-1,3-thiazol-2-yl]methyl}-2,5-dimethylphenyl)-N-ethyl-N-methylimidoformamide hydrobromide]			0.0156 µg/mL	MIC [2, 9]: 0.001 µg/mL; MIC [3, 8]: 0.0625 µg/mL
CCN(C)/C=N/c1cc(C)c(Cc2nc(-c3ccc(Cl)cc3)cs2)cc1C [Example 49, N′-(4-{[4-(4-Chlorophenyl)-1,3-thiazol-2-yl]methyl}-2,5-dimethylphenyl)-N-ethyl-N-methylimidoformamide hydrochloride]	0.0156 µg/mL			MIC [3, 7]: 0.0625 µg/mL
Cc1ccc(-c2csc(Cc3cc(C)c(/N=C/N4CCCC4)cc3C)n2)cc1 [Example 1, 2,5-Dimethyl-4-{[4-(4-methylphenyl)-1,3-thiazol-2-yl]methyl}-N-[(E)-pyrrolidin-1-ylmethylidene]aniline]				MIC [2, 9]: 0.0039 µg/mL (≈ 0.01 µM); MIC [3, 8]: 0.0625 µg/mL (≈ 0.16 µM)
CCN(C)/C=N/c1cc(C)c(Cc2nc(-c3ccc(C(=O)OC)cc3)cs2)cc1C [Example 14, Methyl 4-{2-[4-({(E)-[ethyl(methyl)amino]methylidene}amino)-2,5-dimethylbenzyl]-1,3-thiazol-4-yl}benzoate dihydrochloride]	0.0625 µg/mL			
CCN(C)/C=N/c1cc(C)c(Cc2nc(C(=O)c3ccc(Cl)cc3)cs2)cc1C [Example 27, N′-[4-({4-[(4-Chlorophenyl)carbonyl]-1,3-thiazol-2-yl}methyl)-2,5-dimethylphenyl]-N-ethyl-N-methylimidoformamide hydrobromide]			0.0625 µg/mL	MIC [3, 8]: 0.0625 µg/mL
CCN(C)/C=N/c1cc(C)c(Cc2nc(COc3ccc(C)cc3)cs2)cc1C [Example 60, N′-[2,5-Dimethyl-4-({4-[(4-methylphenoxy)methyl]-1,3-thiazol-2-yl}methyl)phenyl]-N-ethyl-N-methylimidoformamide]			0.0156 µg/mL (≈ 0.0383 µM)	MIC [2, 9]: 0.001 µg/mL (≈ 0.00245 µM)
CCN(C)/C=N/c1cc(C)c(Cc2nc(CS(=O)(=O)c3ccc(C)cc3)cs2)cc1C [Example 30, N′-{2,5-Dimethyl-4-[(4-{[(4-methylphenyl)sulfonyl]methyl}-1,3-thiazol-2-yl)methyl]phenyl}-N-ethyl-N-methylimidoformamide dihydrochloride]		0.0625 µg/mL		
CCN(C)/C=N/c1cc(C)c(Cc2nc(NC(=O)OC(C)C)cs2)cc1C [Example 102, Propan-2-yl {2-[4-({(E)-[ethyl(methyl)amino]methylidene}amino)-2,5-dimethylbenzyl]-1,3-thiazol-4-yl}carbamate]				MIC [2, 9]: 0.0078 µg/mL (≈ 0.0201 µM)
CCN(C)/C=N/c1cc(C)c(Cc2nc(OC(C)C)cs2)cc1C [Example 32, N′-(2,5-Dimethyl-4-{[4-(propan-2-yloxy)-1,3-thiazol-2-yl]methyl}phenyl)-N-ethyl-N-methylimidoformamide]				MIC [2, 9]: 0.0039 µg/mL (≈ 0.0113 µM)
CCN(C)/C=N/c1cc(C)c(Cc2nc(-c3ccc(C(=O)N(C)CC)cc3)cs2)cc1C [Example 42, N-Ethyl-4-{2-[4-({(E)-[ethyl(methyl)amino]methylidene}amino)-2,5-dimethylbenzyl]-1,3-thiazol-4-yl}-N-methylbenzamide]			0.0625 µg/mL (≈ 0.139 µM)	
CCN(C)/C=N/c1cc(C)c(Cc2nc(C(=O)N(C)C3CCCCC3)cs2)cc1C [Example 71, N-Cyclohexyl-2-[4-({(E)-[ethyl(methyl)amino]methylidene}amino)-2,5-dimethylbenzyl]-N-methyl-1,3-thiazole-4-carboxamide hydrochloride]		0.0156 µg/mL		
